The assay has as its target T1, human recombinant HDAC6 (Homo sapiens, UniProt Q9UBN7).
T1 construct: purchased Calbiochem 382180
T1 sequence (Q9UBN7 1-1215): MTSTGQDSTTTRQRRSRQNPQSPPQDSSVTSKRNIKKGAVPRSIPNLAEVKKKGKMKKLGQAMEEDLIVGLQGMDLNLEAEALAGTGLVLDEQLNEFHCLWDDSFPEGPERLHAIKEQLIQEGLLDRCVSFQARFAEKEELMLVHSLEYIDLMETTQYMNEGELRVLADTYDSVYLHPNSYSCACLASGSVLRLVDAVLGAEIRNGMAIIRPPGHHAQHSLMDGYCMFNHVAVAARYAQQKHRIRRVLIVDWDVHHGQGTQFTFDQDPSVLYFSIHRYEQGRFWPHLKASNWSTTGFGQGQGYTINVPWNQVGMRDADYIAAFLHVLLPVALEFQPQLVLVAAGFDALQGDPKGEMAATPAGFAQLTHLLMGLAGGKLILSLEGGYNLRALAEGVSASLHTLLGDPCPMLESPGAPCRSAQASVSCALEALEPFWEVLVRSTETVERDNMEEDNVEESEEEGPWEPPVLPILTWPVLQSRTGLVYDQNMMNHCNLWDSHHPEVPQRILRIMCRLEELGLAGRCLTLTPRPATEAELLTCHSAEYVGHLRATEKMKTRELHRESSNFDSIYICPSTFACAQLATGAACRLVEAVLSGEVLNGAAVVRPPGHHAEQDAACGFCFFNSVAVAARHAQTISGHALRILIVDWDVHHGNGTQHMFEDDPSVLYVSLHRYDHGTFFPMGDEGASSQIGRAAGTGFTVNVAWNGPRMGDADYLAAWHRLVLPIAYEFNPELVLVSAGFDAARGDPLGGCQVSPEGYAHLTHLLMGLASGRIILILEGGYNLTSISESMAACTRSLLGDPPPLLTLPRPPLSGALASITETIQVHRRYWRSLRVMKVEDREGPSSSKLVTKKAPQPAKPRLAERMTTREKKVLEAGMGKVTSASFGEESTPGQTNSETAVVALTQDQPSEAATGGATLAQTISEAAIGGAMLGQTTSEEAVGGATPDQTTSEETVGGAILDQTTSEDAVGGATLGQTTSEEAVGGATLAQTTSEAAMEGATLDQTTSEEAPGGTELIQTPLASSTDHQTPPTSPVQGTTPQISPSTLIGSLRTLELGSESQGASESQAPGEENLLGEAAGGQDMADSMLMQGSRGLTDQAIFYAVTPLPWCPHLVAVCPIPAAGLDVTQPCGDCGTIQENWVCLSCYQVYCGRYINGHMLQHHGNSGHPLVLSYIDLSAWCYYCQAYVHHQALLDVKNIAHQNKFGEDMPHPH
The assay is described as follows: HDAC6 enzyme activity inhibition assay (HDAC Fluorimetric Drug Discovery Kit). The assay is classed as biochemical. The settings on record: for HDAC6 selectivity (fold): HDAC6 over HDAC1; for pIC50: human recombinant HDAC6, same protocol as HDAC1, read-out: HDAC6. The gist of the method: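 Human recombinant HDAC1 or HDAC6 (0.3 μg) reacted with 10 μM Fluor de Lys-SIRT1 substrate and 5-fold compound dilutions for 60 min at 30 °C. Developer II added for 30 min, fluorescence read at Ex 360/Em 460; IC50 calculated from the readings.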

Each structure is given as a SMILES string. pIC50: −log10 of the molar value.

Take `O=C(N1CCS(=O)(=O)CC1)N(Cc1ccc(-c2nnc(C(F)F)o2)cc1F)c1ccc(CN2CCN(Cc3ccccc3)CC2)cc1` [Compound 21900, N-(4-((4-benzylpiperazin-1-yl)methyl)phenyl)-N-(4-(5-(difluoromethyl)-1,3,4-oxadiazol-2-yl)-2-fluorobenzyl)thiomorpholine-4-carboxamide 1,1-dioxide]: the “HDAC6 selectivity (fold)” value is given as 53 fold and the pIC50 was 6.72.

`CC(C)(F)CN1CCN(Cc2ccc(N(Cc3ccc(-c4nnc(C(F)F)o4)cc3F)C(=O)N3CCS(=O)(=O)CC3)cc2)CC1` [Compound 21901, N-(4-(5-(difluoromethyl)-1,3,4-oxadiazol-2-yl)-2-fluorobenzyl)-N-(4-((4-(2-fluoro-2-methylpropyl)piperazin-1-yl)methyl)phenyl)thiomorpholine-4-carboxamide 1,1-dioxide]: the “HDAC6 selectivity (fold)” value was 29 fold and the pIC50 is 6.46.

Regarding `O=C(N1CCS(=O)(=O)CC1)N(Cc1ccc(-c2nnc(C(F)F)o2)cc1F)c1ccc(CN2CCN(CC(F)(F)F)CC2)cc1` [Compound 21902, N-(4-(5-(difluoromethyl)-1,3,4-oxadiazol-2-yl)-2-fluorobenzyl)-N-(4-((4-(2,2,2-trifluoroethyl)piperazin-1-yl)methyl)phenyl)thiomorpholine-4-carboxamide 1,1-dioxide], the “HDAC6 selectivity (fold)” value is 25 fold and the pIC50 is 6.40.

Regarding `O=C(N1CCOCC1)N(Cc1ccc(-c2nnc(C(F)F)o2)cc1F)C12CC3CC(CC(C3)C1)C2` [Compound 21910, N-((3s,5s,7s)-adamantan-1-yl)-N-(4-(5-(difluoromethyl)-1,3,4-oxadiazol-2-yl)-2-fluorobenzyl)morpholine-4-carboxamide], the “HDAC6 selectivity (fold)” value is reported as 21 fold and the pIC50 is 6.33.

For `O=C(N1CCS(=O)(=O)CC1)N(Cc1ccc(-c2nnc(C(F)F)o2)cc1F)c1ccc(CN2CC(F)(F)C2)cc1` [Compound 21914, N-(4-((3,3-difluoroazetidin-1-yl)methyl)phenyl)-N-(4-(5-(difluoromethyl)-1,3,4-oxadiazol-2-yl)-2-fluorobenzyl)thiomorpholine-4-carboxamide 1,1-dioxide], the “HDAC6 selectivity (fold)” value is recorded as 63 fold and the pIC50 was 6.80.

In the case of `O=C(N1CCS(=O)(=O)CC1)N(Cc1ccc(-c2nnc(C(F)F)o2)cc1F)c1ccc(CN2CCC(F)(F)C2)cc1` [Compound 21915, N-(4-(5-(difluoromethyl)-1,3,4-oxadiazol-2-yl)-2-fluorobenzyl)-N-(4-((3,3-difluoropyrrolidin-1-yl)methyl)phenyl)thiomorpholine-4-carboxamide 1,1-dioxide], the “HDAC6 selectivity (fold)” value was found to be 62 fold and the pIC50 is 6.80.

For `O=C(N1CCS(=O)(=O)CC1)N(Cc1ccc(-c2nnc(C(F)F)o2)cc1F)c1ccc(CN2CCC(F)(F)CC2)cc1` [Compound 21916, N-(4-(5-(difluoromethyl)-1,3,4-oxadiazol-2-yl)-2-fluorobenzyl)-N-(4-((4,4-difluoropiperidin-1-yl)methyl)phenyl)thiomorpholine-4-carboxamide 1,1-dioxide], the “HDAC6 selectivity (fold)” value is on record as 43 fold and the pIC50 was 6.63.

Take `CN(C)[C@@H]1CCN(Cc2ccc(N(Cc3ccc(-c4nnc(C(F)F)o4)cc3F)C(=O)N3CCS(=O)(=O)CC3)cc2)C1` [Compound 21917, (R)—N-(4-(5-(difluoromethyl)-1,3,4-oxadiazol-2-yl)-2-fluorobenzyl)-N-(4-((3-(dimethylamino)pyrrolidin-1-yl)methyl)phenyl)thiomorpholine-4-carboxamide 1,1-dioxide]: the “HDAC6 selectivity (fold)” value was 151 fold and the pIC50 is 7.18.

As for `O=C(N1CCS(=O)(=O)CC1)N(Cc1ccc(-c2nnc(C(F)F)o2)cc1F)c1ccc(CN2CCOCC2)cc1` [Compound 21918, N-(4-(5-(difluoromethyl)-1,3,4-oxadiazol-2-yl)-2-fluorobenzyl)-N-(4-(morpholinomethyl)phenyl)thiomorpholine-4-carboxamide 1,1-dioxide], the “HDAC6 selectivity (fold)” value came out at 52 fold and the pIC50 was 6.71.

Turning to `O=C(N1CCS(=O)(=O)CC1)N(Cc1ccc(-c2nnc(C(F)F)o2)cc1F)c1ccc(CN2CCCCC2)cc1` [Compound 21919, N-(4-(5-(difluoromethyl)-1,3,4-oxadiazol-2-yl)-2-fluorobenzyl)-N-(4-(piperidin-1-ylmethyl)phenyl)thiomorpholine-4-carboxamide 1,1-dioxide], the “HDAC6 selectivity (fold)” value is reported as 28 fold and the pIC50 was 6.45.

Take `O=C(N1CCS(=O)(=O)CC1)N(Cc1ccc(-c2nnc(C(F)F)o2)cc1F)c1ccc(OC2CCN(Cc3ccccc3)CC2)cc1` [Compound 21924, N-(4-((1-benzylpiperidin-4-yl)oxy)phenyl)-N-(4-(5-(difluoromethyl)-1,3,4-oxadiazol-2-yl)-2-fluorobenzyl)thiomorpholine-4-carboxamide 1,1-dioxide]: the “HDAC6 selectivity (fold)” value was determined as 47 fold and the pIC50 was 6.67.

As for `C[C@@H]1CN(Cc2ccccc2)C[C@H](C)N1Cc1ccc(N(Cc2ccc(-c3nnc(C(F)F)o3)cc2F)C(=O)N2CCS(=O)(=O)CC2)cc1` [Compound 21925], the “HDAC6 selectivity (fold)” value is 12 fold and the pIC50 was 6.08.

Regarding `C[C@@H]1CN(Cc2ccc(N(Cc3ccc(-c4nnc(C(F)F)o4)cc3F)C(=O)N3CCS(=O)(=O)CC3)cc2)C[C@H](C)N1Cc1ccccc1` [Compound 21926], the “HDAC6 selectivity (fold)” value is 28 fold and the pIC50 is 6.45.

Turning to `O=C(N1CCOCC1)N(Cc1ccc(-c2nnc(C(F)F)o2)cc1F)c1ccc(F)c(Cl)c1` [Compound 21929, N-(3-chloro-4-fluorophenyl)-N-(4-(5-(difluoromethyl)-1,3,4-oxadiazol-2-yl)-2-fluorobenzyl)morpholine-4-carboxamide], the “HDAC6 selectivity (fold)” value was found to be 176 fold and the pIC50 is 7.24.

On to `O=C(N1CCOCC1)N(Cc1ccc(-c2nnc(C(F)(F)F)o2)cc1F)C12CC3CC(CC(C3)C1)C2` [Compound 21931, N-((3s,5s,7s)-adamantan-1-yl)-N-(2-fluoro-4-(5-(trifluoromethyl)-1,3,4-oxadiazol-2-yl)benzyl)morpholine-4-carboxamide], for which the “HDAC6 selectivity (fold)” value was 6 fold and the pIC50 is 5.76.

As to `O=C(N1CCOCC1)N(Cc1ccc(-c2nnc(C(F)F)o2)cc1F)CC12CC3CC(CC(C3)C1)C2` [Compound 21932, N-(((3r,5r,7r)-adamantan-1-yl)methyl)-N-(4-(5-(difluoromethyl)-1,3,4-oxadiazol-2-yl)-2-fluorobenzyl)morpholine-4-carboxamide], the “HDAC6 selectivity (fold)” value is on record as 15 fold and the pIC50 was 6.16.

`O=C(N1CCOCC1)N(Cc1ccc(-c2nnc(C(F)(F)F)o2)cc1F)CC12CC3CC(CC(C3)C1)C2` [Compound 21933, N-(((3r,5r,7r)-adamantan-1-yl)methyl)-N-(2-fluoro-4-(5-(trifluoromethyl)-1,3,4-oxadiazol-2-yl)benzyl)morpholine-4-carboxamide]: the “HDAC6 selectivity (fold)” value turned out to be 4 fold and the pIC50 is 5.62.

For `CCN1C[C@@H](C)N(Cc2ccc(N(Cc3ccc(-c4nnc(C(F)F)o4)cc3F)C(=O)N3CCS(=O)(=O)CC3)cc2)[C@@H](C)C1` [Compound 21934, N-(4-(5-(difluoromethyl)-1,3,4-oxadiazol-2-yl)-2-fluorobenzyl)-N-(4-(((2R,6S)-4-ethyl-2,6-dimethylpiperazin-1-yl)methyl)phenyl)thiomorpholine-4-carboxamide 1,1-dioxide], the “HDAC6 selectivity (fold)” value amounted to 15 fold and the pIC50 is 6.18.

For the compound `CCN1[C@H](C)CN(Cc2ccc(N(Cc3ccc(-c4nnc(C(F)F)o4)cc3F)C(=O)N3CCS(=O)(=O)CC3)cc2)C[C@@H]1C` [Compound 21935, N-(4-(5-(difluoromethyl)-1,3,4-oxadiazol-2-yl)-2-fluorobenzyl)-N-(4-(((3S,5R)-4-ethyl-3,5-dimethylpiperazin-1-yl)methyl)phenyl)thiomorpholine-4-carboxamide 1,1-dioxide], the “HDAC6 selectivity (fold)” value is given as 38 fold and the pIC50 is 6.58.

For the origin of these results see US10717716B2, “1,3,4-oxadiazole derivative compounds as histone deacetylase 6 inhibitor, and the pharmaceutical composition comprising the same” (Chong Kun Dang Pharmaceutical Corp., priority 2015, dated 2020).
